In patent US20180339051A1, “COMPOSITION FOR TOPICAL APPLICATION COMPRISING DIMETHYL ISOSORBIDE, A POLYOL, AND A PHENOLIC OR POLYPHENOLIC ANTIOXIDANT” (MEDSKIN SOLUTIONS DR. SUWELACK AG, priority 2015, published 2018):

What was measured:
[1] = type: physicochemical
Experimental: Concretely, 10 ml of a pure solvent or a solubiliser mixture were stirred in a beaker at ambient temperature. An amount of 2 mg phenolic or polyphenolic antioxidant was dispersed in the mixture and stirred. If the mixture became clear, the addition of phenolic or polyphenolic antioxidant was repeated until the mixture remained turbid even after stirring for 10 min. The maximum solubility was calculated as a percentage by mass (wt %) based on this experiment.

pig skin biopsies = experiment: Skin Antioxidative Potential (SAP), ESR with test radical TEMPO, ex vivo; type: cell-based; settings: normalized to placebo-treated skin = 100%
Source text: Skin has intrinsic antioxidative protection thanks to the many enzymatic and non-enzymatic antioxidant systems present in the epidermis. A Skin Antioxidative Potential (SAP) can be measured by ESR spectroscopy using an active test radical that is reduced by the antioxidant systems inside the epidermis and dermis. The SAP value is a quantitative ex vivo determination of the antioxidant activity inside the epidermal and dermal layers of the skin.
In contrast, if the SAP value is below 100%, the topical treatment has diminished the skin's antioxidant defense system. Topical treatments with such negative effects on the skin antioxidant system are for example application of a chemical such as detergents or physical stress such as sun exposure.
The method entails applying the composition comprising the active substance (in this case resveratrol) to pig skin biopsies and testing the antioxidative power of the active substance. The antioxidative effect is dependent on whether the active substance is absorbed into the skin.
The measurements mere carried out as follows. Skin biopsies obtained from local slaughterhouse (pig skin, 6 month old animals, external lobe of the ears) were washed, the subdermal fat was removed and the skin was cut in 2×2 cm pieces.
Emulsions made as in example 2, with or without resveratrol, and with or without a solubiliser mix (dimethyl isosorbide, 1,5-pentanediol and panthenol) were applied on the epidermal layer of the biopsies. Skin pieces were placed on a filter paper saturated with the test radical (TEMPO, 2,2,6,6-tetramethyl piperidine-N-oxyl, Sigma-Aldrich, Munich, Germany). Skin biopsies of 4 cm were taken, placed in a special ESR tissue cell and ESR spectra of the test radical were recorded in a time-course experiment.
The amplitudes of the ESR spectra were plotted against time and the obtained kinetics were fitted using a mono-exponential first order decay algorithm.
The measurements were made after penetration times of between ten minutes and four hours. All values were normalized to the placebo-treated skin. […]

solubility in water [1]	Molecule	SAP value (pig skin biopsies; penetration time 10 min) [%]	SAP value (pig skin biopsies; penetration time 30 min) [%]	SAP value (pig skin biopsies; penetration time 120 min) [%]
less than 0.01 wt %	Oc1ccc(/C=C/c2cc(O)cc(O)c2)cc1 [Resveratrol, 3,5,4′-trihydroxy-trans-stilbene]	–	–	–
–	tocopherol	114 ± 3	103 ± 6	100 ± 6
